Experimental data: ChEMBL document CHEMBL4311985, “Novel virosecurinine bivalent mimetics as potent reversal agents against P-glycoprotein-mediated multidrug resistance” (Eur J Med Chem, 2019)
One block for each compound: values may come before it. Active and inactive are the calls of the source. The rule behind the calls is not given here.

Experiments:
[1] = target: T1, ATP-dependent translocase ABCB1 (Homo sapiens, UniProt P08183); test: Reversal of P-gp mediated multidrug resistance in human HepG2/Dox cells assessed as potentiation of doxorubicin-induced cell growth inhibition at 10 uM measured after 48 hrs by MTT assay (reference value: 24%); type: cell-based
[2] = target: T1, ATP-dependent translocase ABCB1; test: Reversal of P-gp mediated multidrug resistance in human MCF7/ADM cells assessed as potentiation of doxorubicin-induced cell growth inhibition at 10 uM measured after 48 hrs by MTT assay; type: cell-based
[3] = target: T1, ATP-dependent translocase ABCB1; test: Reversal of P-gp mediated multidrug resistance in human MCF7/ADM cells assessed as potentiation of doxorubicin-induced cell growth inhibition at 10 uM measured after 48 hrs by MTT assay (reference value: 5%); type: cell-based
[4] = Cytotoxicity against human MCF7/ADM cells assessed as reduction in cell viability at 10 uM measured after 48 hrs by MTT assay; type: cell-based
[5] = Cytotoxicity against human HepG2/DOX cells assessed as reduction in cell viability at 10 uM measured after 48 hrs by MTT assay; type: cell-based
[6] = target: T1, ATP-dependent translocase ABCB1; test: Reversal of P-gp mediated multidrug resistance in human HepG2/Dox cells assessed as potentiation of doxorubicin-induced cell growth inhibition at 10 uM measured after 48 hrs by MTT assay; type: cell-based
[7] = target: T1, ATP-dependent translocase ABCB1; test: Reversal of P-gp mediated multidrug resistance in human HepG2/DOX cells assessed as potentiation of taxol-induced cytotoxicity at 5 to 10 uM by MTT assay; type: cell-based; conditions: TDE = time-dependent effect
[8] = target: T1, ATP-dependent translocase ABCB1; test: Reversal of P-gp mediated multidrug resistance in human HepG2/DOX cells assessed as potentiation of doxorubicin-induced cytotoxicity at 5 to 10 uM by MTT assay; type: cell-based; conditions: TDE = time-dependent effect
[9] = target: T1, ATP-dependent translocase ABCB1; test: Reversal of P-gp mediated multidrug resistance in human MCF7/ADM cells assessed as potentiation of doxorubicin-induced cytotoxicity at 5 to 10 uM by MTT assay; type: cell-based; conditions: TDE = time-dependent effect
[10] = target: T1, ATP-dependent translocase ABCB1; test: Reversal of P-gp mediated multidrug resistance in human MCF7/ADM cells assessed as fold reduction in doxorubicin IC50 at 10 uM measured within 48 hrs by MTT assay relative to control; type: cell-based
[11] = target: T1, ATP-dependent translocase ABCB1; test: Reversal of P-gp mediated multidrug resistance in human MCF7/ADM cells assessed as fold reduction in doxorubicin IC50 at 5 uM measured within 48 hrs by MTT assay relative to control; type: cell-based
[12] = target: T1, ATP-dependent translocase ABCB1; test: Reversal of P-gp mediated multidrug resistance in human HepG2/DOX cells assessed as fold reduction in doxorubicin IC50 at 10 uM measured within 48 hrs by MTT assay relative to control; type: cell-based
[13] = Cytotoxicity against human MCF7/ADM cells assessed as cell viability at 10 uM measured after 48 hrs by MTT assay relative to control; type: cell-based; conditions: read-out: Activity
[14] = Cytotoxicity against human HepG2/DOX cells assessed as cell viability at 10 uM measured after 48 hrs by MTT assay relative to control; type: cell-based; conditions: read-out: Activity
[15] = system: MCF7; test: Cytotoxicity against human MCF7 cells assessed as cell viability at 5 to 50 uM measured after 48 hrs by MTT assay; type: cell-based; conditions: mcf7, 48 h
[16] = system: HepG2; test: Cytotoxicity against human HepG2 cells assessed as cell viability at 5 to 50 uM measured after 48 hrs by MTT assay; type: cell-based; conditions: hepg2, 48 h
[17] = target: T1, ATP-dependent translocase ABCB1; test: Reversal of P-gp mediated drug efflux in human HepG2/Dox cells assessed as increase in intracellular doxorubicin accumulation at 10 uM preincubated for 4 hrs followed by doxorubicin addition measured after 1 hr incubation by fluorescence microscopic analysis; type: cell-based
[18] = target: T1, ATP-dependent translocase ABCB1; test: Reversal of P-gp mediated drug efflux in human HepG2/Dox cells assessed as increase in intracellular Rhodamine123 accumulation at 10 uM preincubated for 4 hrs followed by Rh123 addition measured after 1 hr incubation by fluorescence microscopic analysis; type: cell-based
[19] = target: T1, ATP-dependent translocase ABCB1; test: Reversal of P-gp mediated drug efflux in human HepG2/Dox cells assessed as increase in intracellular doxorubicin accumulation at 5 to 10 uM preincubated for 4 hrs followed by doxorubicin addition measured after 1 hr incubation by flow cytometry analysis; type: cell-based
[20] = target: T1, ATP-dependent translocase ABCB1; test: Reversal of P-gp mediated drug efflux in human HepG2/Dox cells assessed as increase in intracellular Rhodamine123 accumulation at 5 to 10 uM preincubated for 4 hrs followed by Rh123 addition measured after 1 hr incubation by flow cytometry analysis; type: cell-based
[21] = target: T1, ATP-dependent translocase ABCB1; test: Reversal of P-gp mediated drug efflux in human MCF7/ADM cells assessed as increase in intracellular doxorubicin accumulation at 10 uM preincubated for 4 hrs followed by doxorubicin addition measured after 1 hr incubation by fluorescence microscopic analysis; type: cell-based
[22] = target: T1, ATP-dependent translocase ABCB1; test: Reversal of P-gp mediated drug efflux in human MCF7/ADM cells assessed as increase in intracellular Rhodamine123 accumulation at 10 uM preincubated for 4 hrs followed by Rh123 addition measured after 1 hr incubation by fluorescence microscopic analysis; type: cell-based
[23] = target: T1, ATP-dependent translocase ABCB1; test: Inhibition of P-gp mediated doxorubicin efflux in human HepG2/Dox cells at 5 to 10 uM preincubated for 4 hrs followed by co-incubation with doxorubicin for 2 hrs followed by doxorubicin wash-out and measured after 120 mins incubation with drug containing culture medium by fluorescence based analysis; type: cell-based
[24] = target: T1, ATP-dependent translocase ABCB1; test: Inhibition of P-gp mediated doxorubicin efflux in human MCF7/ADM cells at 5 to 10 uM preincubated for 4 hrs followed by co-incubation with doxorubicin for 2 hrs followed by doxorubicin wash-out and measured after 120 mins incubation with drug containing culture medium by fluorescence based analysis; type: cell-based
[25] = species: Homo sapiens; test: Effect on P-gp expression in human MCF7/ADM cells at 5 to 10 uM measured after 48 hrs by Western blot analysis; type: functional, cell-based
[26] = species: Homo sapiens; test: Effect on P-gp expression in human HepG2/Dox cells at 5 to 10 uM measured after 48 hrs by Western blot analysis; type: functional, cell-based
[27] = target: T1, ATP-dependent translocase ABCB1; test: Stimulation of P-gp ATPase activity (unknown origin) at 5 to 10 uM incubated for 40 mins by P-gp-Glo luminescence assay
[28] = Cytotoxicity against human AC16 cells assessed as cell survival at 50 uM measured after 72 hrs by MTT assay relative to control; type: cell-based; conditions: read-out: Activity
[29] = system: Homo sapiens; test: In vivo reversal of P-gp mediated drug resistance in human HepG2/Dox cells xenografted in BALB/c nude mouse assessed as reduction in tumour growth at 25 mg/kg, iv co-administered with doxorubicin every 3rd day for 12 days; type: functional, organism-based
[30] = system: Homo sapiens; test: In vivo reversal of P-gp mediated drug resistance in human HepG2/Dox cells xenografted in BALB/c nude mouse assessed as tumour growth at 25 mg/kg, ip administered daily; type: functional, organism-based
[31] = Toxicity in BALB/c nude mouse xenografted with human HepG2/Dox cells assessed as effect on body weight at 25 mg/kg, ip administered daily; type: organism-based; conditions: in vivo
[32] = Toxicity in BALB/c nude mouse xenografted with human HepG2/Dox cells assessed as effect on doxorubicin-induced body weight decline at 25 mg/kg, iv coadministered with doxorubicin every 3rd day for 12 days; type: organism-based; conditions: in vivo, 288 h
[33] = Cardiotoxicity in BALB/c nude mouse xenografted with human HepG2/Dox cells assessed as effect on doxorubicin-induced myocardial cell enlargement at 25 mg/kg, iv cotreated with doxorubicin every 3rd day for 12 days by hematoxylin and eosin staining based assay; type: toxicity, organism-based; conditions: in vivo, 288 h
[34] = Cardiotoxicity in BALB/c nude mouse xenografted with human HepG2/Dox cells assessed as effect on myocardial cells at 25 mg/kg, ip administered daily by hematoxylin and eosin staining based assay; type: toxicity, organism-based; conditions: in vivo
[35] = Toxicity in spleen of BALB/c nude mouse xenografted with human HepG2/Dox cells assessed as blood extravasation at 25 mg/kg, iv cotreated with doxorubicin every 3rd day for 12 days by hematoxylin and eosin staining based assay; type: organism-based; conditions: in vivo, 288 h
[36] = Toxicity in spleen of BALB/c nude mouse xenografted with human HepG2/Dox cells assessed as inflammation at 25 mg/kg, iv cotreated with doxorubicin every 3rd day for 12 days by hematoxylin and eosin staining based assay; type: organism-based; conditions: in vivo, 288 h
[37] = Toxicity in liver of BALB/c nude mouse xenografted with human HepG2/Dox cells at 25 mg/kg, iv cotreated with doxorubicin every 3rd day for 12 days by hematoxylin and eosin staining based assay; type: organism-based; conditions: in vivo, 288 h
[38] = Toxicity in liver of BALB/c nude mouse xenografted with human HepG2/Dox cells at 25 mg/kg, ip administered daily by hematoxylin and eosin staining based assay; type: organism-based; conditions: in vivo
[39] = Toxicity in lung of BALB/c nude mouse xenografted with human HepG2/Dox cells at 25 mg/kg, iv cotreated with doxorubicin every 3rd day for 12 days by hematoxylin and eosin staining based assay; type: organism-based; conditions: in vivo, 288 h
[40] = Toxicity in lung of BALB/c nude mouse xenografted with human HepG2/Dox cells at 25 mg/kg, ip administered daily by hematoxylin and eosin staining based assay; type: organism-based; conditions: in vivo
[41] = Toxicity in kidney of BALB/c nude mouse xenografted with human HepG2/Dox cells at 25 mg/kg, iv cotreated with doxorubicin every 3rd for 12 days by hematoxylin and eosin staining based assay; type: organism-based; conditions: in vivo, 288 h
[42] = Toxicity in kidney of BALB/c nude mouse xenografted with human HepG2/Dox cells at 25 mg/kg, ip administered daily by hematoxylin and eosin staining based assay; type: organism-based; conditions: in vivo

T1 sequence (P08183 whole entry): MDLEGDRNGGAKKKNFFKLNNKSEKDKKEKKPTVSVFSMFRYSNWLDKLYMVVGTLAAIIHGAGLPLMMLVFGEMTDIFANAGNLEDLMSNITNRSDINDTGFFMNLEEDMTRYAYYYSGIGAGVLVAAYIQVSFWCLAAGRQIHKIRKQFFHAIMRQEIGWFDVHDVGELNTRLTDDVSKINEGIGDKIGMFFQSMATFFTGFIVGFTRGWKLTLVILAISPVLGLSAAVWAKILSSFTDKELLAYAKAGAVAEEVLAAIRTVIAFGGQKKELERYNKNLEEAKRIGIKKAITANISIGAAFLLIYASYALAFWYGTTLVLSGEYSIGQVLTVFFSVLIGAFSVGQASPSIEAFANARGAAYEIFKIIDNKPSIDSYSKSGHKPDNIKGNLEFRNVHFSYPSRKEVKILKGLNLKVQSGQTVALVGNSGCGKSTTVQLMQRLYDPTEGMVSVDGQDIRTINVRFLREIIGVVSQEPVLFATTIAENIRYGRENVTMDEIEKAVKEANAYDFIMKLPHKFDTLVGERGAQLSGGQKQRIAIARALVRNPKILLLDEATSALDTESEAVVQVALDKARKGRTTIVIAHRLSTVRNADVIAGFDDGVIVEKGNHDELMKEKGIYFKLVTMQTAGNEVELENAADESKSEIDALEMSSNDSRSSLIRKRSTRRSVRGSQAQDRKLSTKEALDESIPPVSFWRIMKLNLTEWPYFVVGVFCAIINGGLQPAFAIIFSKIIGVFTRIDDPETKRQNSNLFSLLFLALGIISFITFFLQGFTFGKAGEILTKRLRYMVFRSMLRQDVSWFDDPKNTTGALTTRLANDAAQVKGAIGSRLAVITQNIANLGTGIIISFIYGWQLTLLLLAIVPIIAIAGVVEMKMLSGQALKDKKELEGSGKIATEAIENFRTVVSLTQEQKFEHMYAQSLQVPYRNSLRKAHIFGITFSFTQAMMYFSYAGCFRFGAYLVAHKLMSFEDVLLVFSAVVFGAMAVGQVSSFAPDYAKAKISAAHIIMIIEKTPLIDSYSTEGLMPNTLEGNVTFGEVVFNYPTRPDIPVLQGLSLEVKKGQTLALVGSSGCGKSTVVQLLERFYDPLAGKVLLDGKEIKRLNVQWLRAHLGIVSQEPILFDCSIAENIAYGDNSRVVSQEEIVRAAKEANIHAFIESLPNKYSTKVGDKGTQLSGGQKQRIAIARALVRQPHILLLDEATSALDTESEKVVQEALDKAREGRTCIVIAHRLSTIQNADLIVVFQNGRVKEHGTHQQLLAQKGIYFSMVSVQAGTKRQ

inhibition at 10 µM [1]: 81%
Structure (SMILES): CCCN(C(=O)CCCCCCC(=O)N(CCC)[C@H]1CC2=CC(=O)O[C@@]23C[C@@H]1N1CCCC[C@@H]13)[C@H]1CC2=CC(=O)O[C@@]23C[C@@H]1N1CCCC[C@@H]13
inhibition (INH) [2]: Not Active

inhibition at 10 µM [1]: 79%
Structure (SMILES): CCCN(C(=O)CCCCC(=O)N(CCC)[C@H]1CC2=CC(=O)O[C@@]23C[C@@H]1N1CCCC[C@@H]13)[C@H]1CC2=CC(=O)O[C@@]23C[C@@H]1N1CCCC[C@@H]13
inhibition (INH) [2]: Not Active

Structure (SMILES): O=C1C=C2C=C[C@@H]3C[C@@]2(O1)[C@H]1CCCCN31 [SECURININE]
inhibition at 10 µM [1]: 36%
inhibition at 10 µM [3]: 31%

Structure (SMILES): CCCN(C(=O)CCCCC(=O)N(CCC)[C@H]1CC2=CC(=O)O[C@]23C[C@H]1N1CCCC[C@H]13)[C@H]1CC2=CC(=O)O[C@]23C[C@H]1N1CCCC[C@H]13
Activity [4]: Toxic
Activity [5]: Toxic
inhibition (INH) [6]: Active
inhibition (INH) [2]: Active

Structure (SMILES): CCCN(C(=O)CCCCCCCCC(=O)N(CCC)[C@H]1CC2=CC(=O)O[C@]23C[C@H]1N1CCCC[C@H]13)[C@H]1CC2=CC(=O)O[C@]23C[C@H]1N1CCCC[C@H]13
Activity [4]: Toxic
Activity [5]: Toxic
inhibition (INH) [6]: Active
inhibition (INH) [2]: Active

inhibition at 10 µM [1]: 78%
inhibition at 10 µM [3]: 84%
Structure (SMILES): CCCN(C(=O)CCCCCC(=O)N(CCC)[C@H]1CC2=CC(=O)O[C@@]23C[C@@H]1N1CCCC[C@@H]13)[C@H]1CC2=CC(=O)O[C@@]23C[C@@H]1N1CCCC[C@@H]13
Activity [4]: Toxic
Activity [5]: Toxic

Structure (SMILES): CCCN(C(=O)CCCCCCCC(=O)N(CCC)[C@H]1CC2=CC(=O)O[C@]23C[C@H]1N1CCCC[C@H]13)[C@H]1CC2=CC(=O)O[C@]23C[C@H]1N1CCCC[C@H]13
Activity [4]: Toxic
Activity [5]: Toxic
inhibition (INH) [6]: Active
inhibition (INH) [2]: Active

Structure (SMILES): COc1ccc(CCN(C)CCCC(C#N)(c2ccc(OC)c(OC)c2)C(C)C)cc1OC (centres undefined) [VERAPAMIL]
inhibition at 10 µM [1]: 84%
inhibition at 10 µM [3]: 70%

inhibition at 10 µM [1]: 85%
fold change (FC) [10]: 126.4
fold change (FC) [11]: 10.4
fold change (FC) [12]: 231
inhibition at 10 µM [3]: 78%
inhibition (INH) [17]: Active
inhibition (INH) [18]: Active
inhibition (INH) [19]: Active
inhibition (INH) [20]: Active
inhibition (INH) [21]: Active
inhibition (INH) [22]: Active
inhibition (INH) [23]: Active
inhibition (INH) [24]: Active
Activity [27]: Active
Structure (SMILES): CCCN(C(=O)CCCCCCC(=O)N(CCC)[C@H]1CC2=CC(=O)O[C@]23C[C@H]1N1CCCC[C@H]13)[C@H]1CC2=CC(=O)O[C@]23C[C@H]1N1CCCC[C@H]13
inhibition (INH) [7]: Tde
inhibition (INH) [8]: Tde
inhibition (INH) [9]: Tde
viability at 48 h, 10 µM [13]: > 90%
viability at 48 h, 10 µM [14]: > 90%
Activity [15]: Non-Toxic
Activity [16]: Non-Toxic
Activity [25]: inactive
Activity [26]: inactive
viability at 72 h, 50 µM [28]: 100%
inhibition [29]: Active
inhibition [30]: inactive
Activity [31]: Non-Toxic
Activity [32]: Non-Toxic
Activity [33]: Non-Toxic
Activity [34]: Non-Toxic
Activity [35]: Toxic
Activity [36]: Toxic
Activity [37]: Non-Toxic
Activity [38]: Non-Toxic
Activity [39]: Non-Toxic
Activity [40]: Non-Toxic
Activity [41]: Non-Toxic
Activity [42]: Non-Toxic

Structure (SMILES): CCCN(C(=O)CCCCCC(=O)N(CCC)[C@H]1CC2=CC(=O)O[C@]23C[C@H]1N1CCCC[C@H]13)[C@H]1CC2=CC(=O)O[C@]23C[C@H]1N1CCCC[C@H]13
Activity [4]: Toxic
Activity [5]: Toxic
